Results from paper PMC8621605, “Cascade Transformations of 1-R-Ethynyl-9,10-anthraquinones with Amidines: Expanding Access to Isoaporphinoid Alkaloids” (Molecules, 2021).
Like-named read-outs stand apart in the source and are kept apart here.

Experiments:
MCF7 = assay: MTT cytotoxicity assay, breast cancer; format: cell-based, human; details: for IC50: Homo sapiens, MCF7, 72 h, read-out: IC50 ± SEM, MCF7
Experimental: (§1) The cytotoxicity study of the quinolinones 2–3 was evaluated in vitro by MTT assay on immortalized humane fibroblasts (hTERT), humane breast cancer cell line (MCF7) and humane glioblastoma cell line (U-87MG and) versus doxorubicin as a reference compound.
(§2) Cell lines were obtained from the American Type Culture Collection: U-87 MG (ATCC number HBT-14), MCF7 (ATCC number HTB-22), A549 (ATCC number CRM-CCL), HeLa (ATCC number CCL-2). Immortalized human fibroblasts hTERT (as noncancerous control) were obtained from ICG SB RAS (Novosibirsk, Russia). DMEM with 10% fetal bovine serum (Gibco, Amarillo, TX, USA) was used for culturing. Optical density was measured on a Multiskan RC spectrophotometer (LabSystems, Vantaa, Finland). The MTT test was carried out according to the standard procedure using the reagent 3-(4,5-dimethylthiazol-2-yl)-2,5-diphen-yltetrazolium bromide (MTT, Sigma). Cells were seeded in 96 well plates at 5000 cells/well and incubated for 24 h at 37 C in 5% CO2. After 24 h, various concentrations of test compounds ([…]) in DMSO were added and the cells were incubated for an additional 72 h. The viability for DMSO (negative control) was calculated as 100%. All culture experiments were carried out independently three times with two repeats in the experiment, and the final result is presented as concentration, which causes 50% inhibition of cell population growth (IC50 ± SEM).

[1] = tested on: Histamine-Induced Inflammation; assay: Histamine-induced mouse paw edema model; format: in vivo, outbred albino male mice; details: for inhibition in vivo at 20 mg/kg: Mus musculus, ip, anti-inflammatory activity relative to control group, read-out: Histamine-Induced Inflammation AIA, %; for inhibition in vivo at 20 mg/kg / anti-inflammatory effect (in words): 20 mg/kg i.p.; for Histamine-Induced Inflammation IEI, %: inflammatory edema index, 20 mg/kg i.p. 1 h before histamine, mean ± SEM
Excerpt: (§3) The anti-inflammatory activity of the synthesized compounds was investigated in vivo in comparison with indomethacin on two models of local inflammation induced by histamine or concanavalin A injection. The last one was used as the inductor of allergic-like inflammation, owing to its immunogenic activity. The results were expressed as values of inflammatory edema indexes (IEI) and percentages of anti-inflammatory activity (AIA) relative to the control group (Table 1).
(§4) The pharmacological studies were carried out on outbred albino male mice and C57BL/6 female mice weighing 20–25 g with eight animals in each group. The anti-inflammatory activity of compounds 2–3 was evaluated in the histamine-induced and concanavalin A-induced mouse paw edema models. The test compounds were dissolved in saline containing 0.5% Tween 80 just before intraperitoneal administration at the dose of 20 mg/kg. The reference agent indomethacin (‘Fluka BioChemica’) was administered by the same method and dose. The control group of animals received an equivalent volume of water–Tween mixture.
The 8 outbred male albino mice were subplantar injected into the hind paw with 0.05 mL 0.01% histamine (“Sigma Aldrich”, Saint Louis, MO, USA) in water solution. The tested compounds were administered 1 h before the histamine injection. The animals were sacrificed by cervical dislocation 5 h after the phlogogen injection.
(§5) Both hind paws were cut off at the ankle joint and weighed. The ratio of the difference in weight between the treated and untreated hind paws to the weight of the untreated hind paw was used as an inflammatory edema index (IEI). The relative percentage of IEI versus control IEI (100%) was calculated for each test group. The anti-inflammatory activity (AIA) was presented as a difference between 100% in the control group and relative percentage of IEI in the test group.

[2] = tested on: Concanavalin A-Induced Inflammation; assay: Concanavalin A-induced mouse paw edema model; format: in vivo, C57BL/6 female mice; details: for inhibition in vivo at 20 mg/kg: Mus musculus, ip, anti-inflammatory activity relative to control group, read-out: Concanavalin A-Induced Inflammation AIA, %; for inhibition in vivo at 20 mg/kg / Concanavalin A-Induced Inflammation IEI, %: 20 mg/kg i.p. twice; for Concanavalin A-Induced Inflammation IEI, %: inflammatory edema index, 24 h and 1 h before phlogogen, mean ± SEM; for anti-inflammatory effect (in words): 20 mg/kg i.p.; for activity higher than that of indomethacin (reference drug): 20 mg/kg double i.p. administration
Excerpt: as §3, §4
The 8 female mice C57Bl/6 were subplantar injected into the hind paw with 0.02 mL 0.5% concanavaline A (“Sigma Aldrich”) aqueous solution. The test compounds were administered twice 24 h and 1 h before phlogogen. The animals were sacrificed by cervical dislocation 1 h after the phlogogen injection.
as §5

U-87 MG = assay: MTT cytotoxicity assay, glioblastoma; format: cell-based, human; details: for IC50: Homo sapiens, U-87 MG, 72 h, read-out: IC50 ± SEM, U-87 MG
Experimental: as §1, §2

hTERT = assay: MTT cytotoxicity assay, immortalized fibroblasts; format: cell-based, human; details: for IC50: Homo sapiens, Fibroblast, 72 h, read-out: IC50 ± SEM, hTERT
Experimental: as §1, §2

A549 = assay: MTT cytotoxicity assay, A549; format: cell-based; details: Homo sapiens, 72 h, read-out: IC50 ± SEM, A549
Experimental: as §2

HeLa = assay: MTT cytotoxicity assay, cervical cancer; format: cell-based; details: for cytotoxicity lower than doxorubicin: ratio of IC50; for IC50: 72 h, MTT, read-out: IC50 ± SEM, HeLa
Experimental: as §2

Structure (SMILES) | IC50 (MCF7) [µM] | inhibition in vivo at 20 mg/kg [1] [%] | Histamine-Induced Inflammation IEI, % [1] [%] | inhibition in vivo at 20 mg/kg [2] [%] | Concanavalin A-Induced Inflammation IEI, % [2] [%] | IC50 (U-87 MG) [µM] | cytotoxic effect on immortal fibroblasts (in words) (hTERT) | IC50 (hTERT) [µM] | IC50 (A549) [µM] | cytotoxicity lower than doxorubicin (HeLa; HeLa) [times] | IC50 (HeLa; Homo sapiens, HeLa) [µM] | IC50 (HeLa) [µM] | anti-inflammatory effect (in words) [1] | melting point [°C] | anti-inflammatory effect (in words) [2] | antitumor effect on breast cancer cell culture (in words) (MCF7) | antitumor effect on multiform glioblastoma cell culture (in words) (U-87 MG) | activity higher than that of indomethacin (reference drug) [2]
Cc1c(-c2cc3cccc4c3c(n2)-c2ccccc2C4=O)cnn1C [3k] | > 100 | 34 | 22.7 ± 1.7 | 18 | 31.1 ± 2.4 | > 100 | did not have a cytotoxic effect | > 100 | > 100 | 3.5 | 21.3 | 22.7 ± 7.3 |  |  |  |  |  | 
COc1ccc(C(=O)c2c(-c3ccccc3)nc3c4c(cccc24)C(=O)c2ccccc2-3)cc1 [2d, 2-benzo-3-(p-methoxybenzoyl)-7H-dibenzo[de,h]quinolin-7-one] | > 100 | 34 | 22.7 ± 2.3 | 26 | 27.9 ± 1.2 | > 100 |  | > 100 | > 100 |  | > 100 |  | most potent effects | 279 to 280 | most potent effects |  |  | 
COc1ccc(C(=O)c2c(C)nc3c4c(cccc24)C(=O)c2ccccc2-3)cc1 [4d, 2-methyl-3-(p-methoxybenzoyl)-7H-dibenzo[de,h]quinolin-7-one] |  |  |  |  |  |  |  |  |  |  |  |  |  | 232.5 to 233.5 |  |  |  | 
CC(C)(O)c1cc2cccc3c2c(n1)-c1ccccc1C3=O [3j] | 92.9 ± 7.2 | 16 | 28.9 ± 2.0 | 41 | 22.1 ± 2.5 | 50.1 ± 5.9 | did not have a cytotoxic effect | > 100 | > 100 | 3.5 | 21.3 ± 5.9 |  |  |  |  | weak antitumor effect | weak antitumor effect | 
CCCCCc1cc2cccc3c2c(n1)-c1ccccc1C3=O [3h] | > 100 | 30 | 23.9 ± 1.7 | 48 | 19.7 ± 2.3 | > 100 |  | > 100 | > 100 |  | > 100 |  |  |  |  |  |  | 1.3–1.4 times
O=C1c2ccccc2-c2nc(-c3ccccc3)cc3cccc1c23 [3a, 2-phenyl-7H-dibenzo[de,h]quinolin-7-one] | > 100 | 60 | 13.9 ± 0.8 | 53 | 17.8 ± 1.8 | > 100 | did not have a cytotoxic effect | > 100 | > 100 | 14 | 86.3 ± 12.9 |  | most potent effect | 207 to 208 |  |  |  | 1.3–1.4 times
COc1ccc2c(c1)c(CC(=O)O)c(C)n2C(=O)c1ccc(Cl)cc1 [Indomethacin, indomethacin, reference compound] |  | 48 | 17.8 ± 2.7 | 38 | 23.4 ± 2.2 |  |  |  |  |  |  |  |  |  |  |  |  | 
CC(=O)c1ccc(C(=O)c2c(-c3ccccc3)nc3c4c(cccc24)C(=O)c2ccccc2-3)cc1 [2b, 2-benzo-3-(p-acetylbenzoyl)-7H-dibenzo[de,h]quinolin-7-one] | > 100 | 33 | 23.0 ± 1.9 | 43 | 21.4 ± 1.6 | > 100 |  | > 100 | > 100 |  | > 100 |  | most potent effects | 312 to 313 | most potent effects |  |  | 
CN(C)c1ccc(-c2cc3cccc4c3c(n2)-c2ccccc2C4=O)cc1 [3i] | > 100 | 34 | 22.6 ± 2.3 | 51 | 18.5 ± 1.6 | > 100 |  | > 100 | > 100 |  | > 100 |  | most potent effects |  | most potent effects |  |  | 1.3–1.4 times
O=C1c2ccccc2-c2nc(-c3ccc([N+](=O)[O-])cc3)cc3cccc1c23 [3c, 2-(p-nitrophenyl)-7H-dibenzo[de,h]quinolin-7-one] |  |  |  |  |  |  |  |  |  |  |  |  |  | 295 to 296 |  |  |  | 
COc1cccc2c1C(=O)c1c(O)c3c(c(O)c1C2=O)C[C@@](O)(C(=O)CO)C[C@@H]3O[C@H]1C[C@H](N)[C@H](O)[C@H](C)O1 [Doxorubicin, doxorubicin, reference compound] | 3.6 ± 0.4 |  |  |  |  | 2.3 ± 0.6 |  | 4.1 ± 1 | 4.05 ± 0.9 |  | 6 ± 1 |  |  |  |  |  |  | 
